Several values for one entry are separate records, joined by “and”; a condition that tells them apart may be missing. Identical values can stand only once.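 How tested: cells in 96-well plates exposed to compound for 48 hours at five concentrations. The concentration for 50% growth inhibition is given as GI50.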 Activity calls are given as the source filed them. Cut-off read from the data, not from the text of the source: active = GI50 up to about 1.1 µM and inactive = higher.
How the values were obtained:
Experiment in all cases: NCI tumour cell line growth inhibition, 48 h
[1] = tested on: IGROV-1
[2] = tested on: MCF7
[3] = tested on: COLO 205
[4] = tested on: 786-0
[5] = tested on: OVCAR-5
[6] = tested on: ACHN
[7] = tested on: DU-145
[8] = tested on: RPMI-8226
[9] = tested on: Malme-3M
[10] = tested on: CAKI-1
[11] = tested on: HCT-116
[12] = tested on: BT-549
[13] = tested on: NCI-H226
[14] = tested on: U-251
[15] = tested on: NCI-H23
[16] = tested on: SK-MEL-5
[17] = tested on: NCI-H522
[18] = tested on: NCI/ADR-RES
[19] = tested on: K562
[20] = tested on: SN12C
[21] = tested on: HT-29
[22] = tested on: TK-10
[23] = tested on: HOP-92
[24] = tested on: HOP-62
[25] = tested on: SK-MEL-28
[26] = tested on: SNB-75
[27] = tested on: SNB-19
[28] = tested on: A549
[29] = tested on: A498
[30] = tested on: SK-OV-3
[31] = tested on: MOLT-4
[32] = tested on: UACC-62
[33] = tested on: PC-3
[34] = tested on: MDA-MB-435
[35] = tested on: NCI-H460
[36] = tested on: UACC-257
[37] = tested on: M14
[38] = tested on: HCC 2998
[39] = tested on: HCT-15
[40] = tested on: KM12
[41] = tested on: OVCAR-4
[42] = tested on: UO-31
[43] = tested on: SK-MEL-2
[44] = tested on: MDA-N
[45] = tested on: EKVX
[46] = tested on: MDA-MB-231
[47] = tested on: SW-620
[48] = tested on: SF-295
[49] = tested on: OVCAR-3
[50] = tested on: CCRF-CEM
[51] = tested on: OVCAR-8

Compound: Clc1ccc(Nc2nnc(CCCCCCCCc3nnc(Nc4ccc(Cl)cc4)o3)o2)cc1
- GI50 [1]: 8 µM (inactive)
- GI50 [2]: 39 µM (inactive)
- GI50 [3]: 39.9 µM (inactive)
- GI50 [4]: 24.5 µM (inactive)
- GI50 [5]: 23.7 µM (inactive)
- GI50 [6]: 38.8 µM (inactive)
- GI50 [7]: 25.5 µM (inactive)
- GI50 [8]: 21.6 µM (inactive)
- GI50 [9]: 11 µM (inactive)
- GI50 [10]: 38.3 µM (inactive)
- GI50 [11]: 17.3 µM (inactive)
- GI50 [12]: 31.9 µM (inactive)
- GI50 [13]: 46 µM (inactive)
- GI50 [14]: 38.3 µM (inactive)
- GI50 [15]: 27.6 µM (inactive)
- GI50 [16]: 23.1 µM (inactive)
- GI50 [17]: 21.5 µM (inactive)
- GI50 [18]: 36 µM (inactive)
- GI50 [19]: 7.35 µM (inactive)
- GI50 [20]: 45.7 µM (inactive)
- GI50 [21]: 32 µM (inactive)
- GI50 [22]: 55.8 µM (inactive)
- GI50 [23]: 23.8 µM (inactive)
- GI50 [24]: 37.9 µM (inactive)
- GI50 [25]: 48.6 µM (inactive)
- GI50 [26]: 82.2 µM (inactive)
- GI50 [27]: 26.3 µM (inactive)
- GI50 [28]: 28.1 µM (inactive)
- GI50 [29]: 37.1 µM (inactive)
- GI50 [30]: 35.7 µM (inactive)
- GI50 [31]: 10.9 µM (inactive)
- GI50 [32]: 21.7 µM (inactive)
- GI50 [33]: 38.1 µM (inactive)
- GI50 [34]: 42.7 µM (inactive)
- GI50 [35]: 33.9 µM (inactive)
- GI50 [36]: 37.4 µM (inactive)
- GI50 [37]: 36 µM (inactive)
- GI50 [38]: 36.4 µM (inactive)
- GI50 [39]: 32.6 µM
- GI50 [40]: 23.4 µM (inactive)
- GI50 [41]: 51.6 µM (inactive)
- GI50 [42]: 36.8 µM (inactive)
- GI50 [43]: 50.8 µM (inactive)
- GI50 [44]: 33.3 µM (inactive)
- GI50 [45]: 39 µM (inactive)
- GI50 [46]: 44.2 µM (inactive)
- GI50 [47]: 48.5 µM (inactive)
- GI50 [48]: 35.8 µM (inactive)

Compound: CC(=O)OC1COC(n2c3ccccc3c3ccc4c5ccccc5[nH]c4c32)C(OC(C)=O)C1OC(C)=O (centres undefined)
- GI50 [1]: 0.0512 µM (active)
- GI50 [3]: 39.1 µM (inactive)
- GI50 [5]: 23.4 µM (inactive)
- GI50 [8]: 95.7 µM (inactive)
- GI50 [10]: 29.2 µM (inactive)
- GI50 [11]: 65.9 µM (inactive)
- GI50 [12]: 89.3 µM (inactive)
- GI50 [14]: 29.2 µM (inactive)
- GI50 [15]: 36.8 µM (inactive)
- GI50 [16]: 36 µM (inactive)
- GI50 [17]: 18.2 µM (inactive)
- GI50 [19]: 0.6 µM (active)
- GI50 [21]: 22.3 µM (inactive)
- GI50 [23]: 30.1 µM (inactive)
- GI50 [24]: 22.9 µM (inactive)
- GI50 [25]: 37.8 µM (inactive)
- GI50 [26]: 0.29 µM (active)
- GI50 [49]: 27 µM (inactive)
- GI50 [27]: 61.4 µM (inactive)
- GI50 [28]: 44.8 µM (inactive)
- GI50 [29]: 32.8 µM (inactive)
- GI50 [30]: 18.6 µM (inactive)
- GI50 [31]: > 100 µM (inactive)
- GI50 [32]: 67.9 µM (inactive)
- GI50 [50]: 70.3 µM (inactive)
- GI50 [33]: 27.2 µM (inactive)
- GI50 [34]: 39.1 µM (inactive)
- GI50 [35]: 21.3 µM (inactive)
- GI50 [36]: > 100 µM (inactive)
- GI50 [38]: 61.8 µM (inactive)
- GI50 [39]: 70 µM
- GI50 [40]: 17.8 µM (inactive)
- GI50 [41]: 37.6 µM (inactive)
- GI50 [42]: 38.6 µM (inactive)
- GI50 [43]: 58.1 µM (inactive)
- GI50 [44]: 53.3 µM (inactive)
- GI50 [47]: 41.2 µM (inactive)
- GI50 [48]: 15.1 µM (inactive)

Compound: CC(=O)OCC1OC(n2c3c(cc(C#N)c2=S)CCCC3)C(OC(C)=O)C(OC(C)=O)C1OC(C)=O (centres undefined)
- GI50 [1]: 57.8 µM (inactive)
- GI50 [3]: > 100 µM (inactive)
- GI50 [5]: > 100 µM (inactive)
- GI50 [6]: > 64.4 µM (inactive)
- GI50 [7]: > 100 µM (inactive)
- GI50 [9]: > 100 µM (inactive)
- GI50 [12]: > 100 µM (inactive)
- GI50 [13]: > 100 µM (inactive) and > 80 µM (inactive)
- GI50 [15]: > 100 µM (inactive) and 62.5 µM (inactive)
- GI50 [16]: > 76.4 µM (inactive)
- GI50 [17]: 42.8 µM (inactive) and 40.8 µM (inactive)
- GI50 [18]: > 74.1 µM (inactive)
- GI50 [20]: > 100 µM (inactive)
- GI50 [22]: > 100 µM (inactive)
- GI50 [51]: > 60.5 µM (inactive)
- GI50 [25]: > 100 µM (inactive)
- GI50 [28]: > 91.4 µM (inactive)
- GI50 [29]: > 100 µM (inactive)
- GI50 [34]: > 100 µM (inactive)
- GI50 [35]: > 100 µM (inactive) and 50.9 µM (inactive)
- GI50 [36]: > 100 µM (inactive)
- GI50 [37]: > 100 µM (inactive)
- GI50 [39]: > 100 µM
- GI50 [41]: > 100 µM (inactive)
- GI50 [42]: > 100 µM (inactive)
- GI50 [44]: > 100 µM (inactive)
- GI50 [45]: 70 µM (inactive)
- GI50 [46]: > 100 µM (inactive)
